Reference: patent US9320280B2, “Methods and compositions for deterring feeding/repelling the brown marmorated stink bug (BMSB), Halyomorpha halys” (The United States of America, as Represented by the …, priority 2012, dated 2016)
Entries after “also recorded” stand apart in the source; their conditions may differ.

Columns and labels:
[1] = test system: Halyomorpha halys; assay: Optimized closed-air petri dish bioassay: feeding deterrence on green beans; format: in vivo; design: key to significance of repelling insect from treated bean relative to pentane control: p<0.05 (*); p<0.01 (**); p<0.001 (***); n.s.: compound tested was not significant in repelling insect from treated bean; settings: for overall repellent effectiveness (conclusion): all age groups and sexes of H. halys
Procedure: Optimized petri dish bioassays: Insects tested were moved in groups from Thermo Forma cages to plastic petri dishes for food and water deprivation 16-20 hours before bioassays. Adults were separated by age and sex and held in groups of five, nymphs were held in groups of 20. Bioassays were conducted from April-June of 2012 between 8 a.m. and 4 p.m., in a fume hood lined with black paper and covered with black curtain to prevent external visual stimuli. The fume hood was illuminated by a single 60 watt light bulb with a light intensity of 800 LUX, placed 50 cm above bio assay arenas, with 26°-28° C. temperature and 50% relative humidity. Glass petri dishes (10 cm diameter) were used for the bioassay arena and were lined with Whatman's #1 filter paper (9 cm) that was changed before each assay. Adults were bioassayed individually. Nymphs were tested in groups of four because in preliminary assays they were observed continually walking for up to four hours unless conspecifics were present.
We then used the optimized solvent (i.e., pentane) to test the effects of different repellents on deterring H. halys feeding on organic green beans in petri dishes. Insects were tested in a glass Petri dish for their attraction/aversion to 1 μg and 100 μg concentrations of isolongifolanone and isolongifolenone (International Flavors and Fragrances, NY), C-13, and E-2-decenal, diluted in pentane. Pure pentane was tested as a control. Whatman's #1 filter paper (9 cm) was placed in petri dish and 2× one-inch diameter impressions were made with a metal circle. One circle was treated with 75 ul of pentane (control) and the other with pentane+repellant (treatment) and dried for five minutes. One-inch sections of organic green beans were placed over the treated or untreated circle. Starved insects were introduced to the petri dish assay arena and observed at three time points in 45 minute increments for 2.25 hours. Their location was recorded as feeding with stylet inserted on the treatment (i.e., odor) bean, blank bean, or off bean (i.e., walking off of food source or no movement in petri dish and not on bean). Individuals were only used for one bioassay at the adult or nymphal stage in their lifetime. Petri dishes were rinsed with water daily and baked overnight at 100° C., and were rinsed with acetone after every six uses.
Optimized petri dish bioassays were analyzed for each age group, sex, and treatment using Likelihood Ratio tests (JMP®). Percent response for each choice per compound was averaged over the three time periods observed. The likelihood of the three choices was set to the level determined by the pentane control for each age/sex group, and the confidence interval set at 95%. P-values are indicated as follows: *=0.05; **=0.01; ***=0.001.

[2] = test system: Halyomorpha halys; assay: Open-air small cage bioassay: feeding deterrence/repellency on treated peaches and apples; format: in vivo; settings: open-air system
Procedure: Small Cage Bioassays: Nymphs and adults were tested for effects of feeding deterrents/repellents from islongifolanone, islongifolenone, C-13, and E-2-decenal applied to organic peaches and gala apples in a small cage. Insects were starved for 16 hours prior to experiments before being transferred in groups of 15 (nymphs) or 10 (adults male or female) to two gallon containers containing one treated fruit, and observed hourly for the number of nymphs on the fruit. Experiments were conducted in a fume hood under the same light and heat conditions as above. Different concentrations of isolongifolanone, isolongifolenone, C-13, and E-2-decenal were tested both individually and combined (equal amount of each component), with a final concentration of 70-80 mg/fruit chosen as an effective treatment. Compounds (400 mg) were combined with the emulsifier Tween-80 (2 mg), mixed with water (H2O 10 ml) in glass vial (20 ml), and sonicated for 20 min. The solution containing emulsifier Tween-80 (2 mg) in 10 ml water was used as control. […]
Small cage bioassays were analyzed by replicate, treatment, and time using repeated measures ANOVA and multiple comparisons for treatments were tested using Tukeys HSD, Model: Nymphs on Fruit=Treatment, Rep (Treatment), Time, Treatment*Time.

[3] = test system: Halyomorpha halys; settings: for feeding on solvent-treated versus untreated green bean: starved adult males ages 3-7 days, 35 μl of solvent on 1-inch section of green bean
Procedure: We tested the effects of solvent on H. halys survival and feeding behavior to optimize the solvent used in petri dish assays. Mortality of 3rd stage nymphs, and adult males and females (ages 3-7 days or 13-23 days into adult stage), was quantified as the percentage of individuals who died after exposure to methylene chloride (DCM) after 2.25 hours. […] Insects were starved for 16-20 hours prior to being exposed to 1 inch cut sections of organic green beans in a 10 cm petri covered glass petri dish. One bean was coated with […] solvent while the other was untreated. Behaviors of young adult male individuals were recorded at three time points (45, 90, and 135 minutes) as feeding on the blank (untreated) bean, feeding on the odor (solvent-treated) bean, or sitting on the wall of the petri dish. Percent response for each choice was averaged over the three time periods.

[4] = Nymph (3rd stage), starved, 1 μg in pentane on filter paper under green bean
[5] = Nymph (3rd stage), starved, 100 μg in pentane on filter paper under green bean
[6] = Old Adult Male (13-23 days), 1 μg
[7] = Old Adult Male (13-23 days), 100 μg
[8] = Young Adult Male (3-7 days), 1 μg
[9] = Young Adult Male (3-7 days), 100 μg
[10] = starved nymphs (3rd stage), 1 μg, FIG. 6A
[11] = starved nymphs (3rd stage), 100 μg, FIG. 6A
[12] = young adult males (3-7 days), 100 μg, FIG. 6B
[13] = old adult females, 100 μg, FIG. 6E
[14] = young adult females, 100 μg, FIG. 6C

Row | Compound | significance of repelling insect from treated bean relative to pentane control [1, 4] | significance of repelling insect from treated bean relative to pentane control [1, 5] | significance of repelling insect from treated bean relative to pentane control ([1]; Old Adult Female, 1 μg) | significance of repelling insect from treated bean relative to pentane control ([1]; Old Adult Female, 100 μg) | significance of repelling insect from treated bean relative to pentane control [1, 6] | significance of repelling insect from treated bean relative to pentane control [1, 7] | significance of repelling insect from treated bean relative to pentane control ([1]; Young Adult Female, 1 μg) | significance of repelling insect from treated bean relative to pentane control ([1]; Young Adult Female, 100 μg) | significance of repelling insect from treated bean relative to pentane control [1, 8] | significance of repelling insect from treated bean relative to pentane control [1, 9] | likelihood to feed on treated green bean (in words) [1, 11] | likelihood to feed on treated green bean (in words) [1, 12] | feeding on solvent-treated versus untreated green bean [3] | repellency/deterrence across age groups and sexes (summary of Table 1) ([1]; 100 μg concentration) | other results
1 | CCCCCCCCCCCCC [C-13, tridecane] | *** (p<0.001 (***)) | ** (p<0.01 (**)) | n.s. | n.s. | n.s. | * (p<0.05 (*)) | n.s. | n.s. | n.s. | * (p<0.05 (*)) | significantly less likely to feed | significantly less likely to feed | – | – | repellency/deterrence across age groups and sexes (summary) ([1]; concentration not given, diluted in pentane): deterrent to young males and old adult males and nymphs; also recorded: deterred H. halys feeding; likelihood to feed on treated green bean (in words) ([1]; old adult males (13-23 days), 1 μg, FIG. 6D): significantly less likely to feed; likelihood to feed on treated green bean (in words) [1, 10]: significantly less likely to feed; repellency in small cage tests compared with petri dish [2]: decreased repellency
2 | CCO [ethanol] | – | – | – | – | – | – | – | – | – | – | – | – | Less feeding aversion | – | –
3 | CCCCCC [hexane] | – | – | – | – | – | – | – | – | – | – | – | – | significantly less likely to feed | – | –
4 | CC(C)=O [acetone] | – | – | – | – | – | – | – | – | – | – | – | – | significantly less likely to feed | – | –
5 | CC1(C)C2=CC(=O)CC(C)(C)[C@]23CC[C@H]1C3 [isolongifolenone] | *** (p<0.001 (***)) | ** (p<0.01 (**)) | n.s. | * (p<0.05 (*)) | n.s. | n.s. | n.s. | *** (p<0.001 (***)) | n.s. | *** (p<0.001 (***)) | significantly less likely to feed | significantly less likely to feed | – | deterring all groups except for old adult males | overall repellent effectiveness (conclusion) [1]: highly effective repellents; likelihood to feed on treated green bean (in words) [1, 13]: significantly less likely to feed; also recorded: deterred; likelihood to feed on treated green bean (in words) [1, 10]: significantly less likely to feed; likelihood to feed on treated green bean (in words) [1, 14]: significantly less likely to feed; also recorded: deterred
6 | ClCCl [methylene chloride (DCM), methylene chloride] | – | – | – | – | – | – | – | – | – | – | – | – | significantly less likely to feed | – | mortality (susceptibility) after exposure to solvent ([3]; 3rd stage nymphs, adult males and females, after 2.25 hours): young adult males were the most susceptible
7 | CCCCCCC/C=C/C=O [E-2-decenal] | ** (p<0.01 (**)) | n.s. | n.s. | * (p<0.05 (*)) | n.s. | * (p<0.05 (*)) | n.s. | n.s. | ** (p<0.01 (**)) | n.s. | – | – | – | effective at deterring old adult males | repellency/deterrence across age groups and sexes (summary of Table 1) ([1]; 1 μg): effective at deterring Nymphs, young adult males, and old adult females; likelihood to feed on treated green bean (in words) ([1]; young adult males (3-7 days), 1 μg, FIG. 6B): significantly less likely to feed
8 | isolongifolanone | – | *** (p<0.001 (***)) | – | *** (p<0.001 (***)) | – | *** (p<0.001 (***)) | – | *** (p<0.001 (***)) | – | *** (p<0.001 (***)) | significantly less likely to feed | significantly less likely to feed | – | significantly repellent to all age groups and sexes | overall repellent effectiveness (conclusion) [1]: highly effective repellents; likelihood to feed on treated green bean (in words) [1, 13]: significantly less likely to feed; also recorded: deterred; likelihood to feed on treated green bean (in words) ([1]; old adult males (13-23 days), 100 μg, FIG. 6D): significantly less likely to feed; likelihood to feed on treated green bean (in words) [1, 14]: significantly less likely to feed; also recorded: deterred
9 | CCCCC [pentane] | – | – | – | – | – | – | – | – | – | – | – | – | slight preference for pentane-treated green beans over the untreated control bean | – | –
